Experimental data published in patent US12528814B2, “Bifunctional degraders of interleukin-1 receptor-associated kinases and therapeutic use thereof” (NURIX THERAPEUTICS, INC., priority 2020, dated 2026).
Read-outs that look alike come from different tables or passages of the source.

Legend:
IRAK4 [1] = biological target: T1, IRAK4 (Homo sapiens (Human), UniProt Q9NWZ3); assay: IRAK4 Biochemical HTRF Kinase Assay; details: read-out: IRAK4 HTRF biochemical: IC50
Procedure, shortened: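 HTRF KinEASE STK S1 format measuring IRAK4 phosphorylation of biotinylated peptide; reaction solution of 5 μM STK-S1, 10 mM ATP, 10 mM MgCl2 added (stock, to 10 μl final), 90 min at ambient temperature, detection 60 min. IC50 from sixteen-point duplicate curves by non-linear regression.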
Target sequence in this assay (Q9NWZ3 whole entry, species assumed): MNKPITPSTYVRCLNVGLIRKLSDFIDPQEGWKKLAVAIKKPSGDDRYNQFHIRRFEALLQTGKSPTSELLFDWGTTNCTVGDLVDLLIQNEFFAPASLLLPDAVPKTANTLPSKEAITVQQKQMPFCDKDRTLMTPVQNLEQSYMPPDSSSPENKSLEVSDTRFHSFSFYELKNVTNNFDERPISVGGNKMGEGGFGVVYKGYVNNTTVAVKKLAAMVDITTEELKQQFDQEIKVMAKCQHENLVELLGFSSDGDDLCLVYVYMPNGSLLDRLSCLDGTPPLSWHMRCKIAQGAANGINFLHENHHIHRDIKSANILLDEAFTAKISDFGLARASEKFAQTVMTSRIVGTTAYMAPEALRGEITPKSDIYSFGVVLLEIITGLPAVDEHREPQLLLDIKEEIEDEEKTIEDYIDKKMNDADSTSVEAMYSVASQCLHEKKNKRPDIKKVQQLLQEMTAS

IRAK4 [2] = biological target: T1, IRAK4; assay: IRAK4 Degradation HiBiT Assay; details: HiBiT-tagged Jurkat cells, 4 hrs; for Dmax: Jurkat; for DC50: read-out: Cellular IRAK4 HiBiT: DC50
Target sequence in this assay (Q9NWZ3 whole entry): as the sequence (Q9NWZ3 whole entry, species assumed) above
Description: Compound dilution series (11-point, 3.16-fold dilutions in DMSO, columns 1-11 and 12-22) at 500× the final required concentrations were prepared in Labcyte LDV 384-well plates (cat. no. LP-0200) using a Labcyte Echo 550 Liquid Handler. The 500× solutions ranged from 5 mM to 0.5 μM (final assay concentration range 10 μM to 0.1 nM). Using the Echo, the 500× solutions were stamped into white, 384-well assay plates (Corning, cat. no. 3570) at 60 nL/well. […] C-terminal HiBiT-tagged Jurkat cells (polyclonal cell line or clone 8D5) were plated at 1×10^6 cells/mL, 30 μL/well (3×10^4 cells/well) in complete RPMI (10% FBS, 1% L-glutamine). Cells were incubated for 4 hrs at 32° C./6% CO2.
Following incubation, 30 uL of complete Nano-Glo HiBiT Lytic Detection Reagent (Nano-Glo HiBiT Lytic Buffer with 1:50 Nano-Glo HiBiT Lytic Substrate and 1:100 LgBiT Protein; Promega cat. no. N3040) was added. Cells were further incubated for 10 min at room temperature (RT). Luminescence units (LU) were read on an EnVision plate reader (Perkin Elmer, 0.1 sec per well). Percent IRAK4 remaining per sample was calculated as follows:
Using Graphpad Prism, % IRAK4 remaining values were plotted as a function of compound concentration.

[3] = read-out: Cellular IRAK4 HiBiT: Dmax, Table 5, multiple runs
[4] = read-out: Cellular IRAK4 HiBiT: Dmax, Table 4

Structure (SMILES)	IC50 (IRAK4 [1]; Table 5, multiple runs) [nM]	Dmax (IRAK4 [2]; [3]) [%]	DC50 (IRAK4 [2]; Table 5, multiple runs) [nM]	IC50 (IRAK4 [1]; Table 4) [nM]	Dmax (IRAK4 [2]; [4]) [%]	DC50 (IRAK4 [2]; Table 4) [nM]
CC(C)Nc1cc(-c2ccc3cc(C#N)cnn23)ncc1-c1nnc(N2CCN(CC3CCN(c4ccc5c(=O)n(C6CCC(=O)NC6=O)ccc5c4)CC3)CC2)s1 (centres unmarked) [Example 72, 7-(5-(5-(4-((1-(2-(2,6-dioxopiperidin-3-yl)-1-oxo-1,2-dihydroisoquinolin-6-yl)piperidin-4-yl)methyl)piperazin-1-yl)-1,3,4-thiadiazol-2-yl)-4-(isopropylamino)pyridin-2-yl)pyrrolo[1,2-b]pyridazine-3-carbonitrile]	3.1	94	189			
CNc1cc(-c2ccc3cc(C#N)cnn23)ncc1-c1nnc([C@H]2CC[C@H](NC(=O)CCOCCNc3ccc4c(c3)C(=O)N(C3CCC(=O)NC3=O)C4=O)CC2)s1 (some centres unmarked) [Example 63, N-((1r,4r)-4-(5-(6-(3-cyanopyrrolo[1,2-b]pyridazin-7-yl)-4-(methylamino)pyridin-3-yl)-1,3,4-thiadiazol-2-yl)cyclohexyl)-3-(2-((2-(2,6-dioxopiperidin-3-yl)-1,3-dioxoisoindolin-5-yl)amino)ethoxy)propanamide]	0.6	85	7.6	0.7	80	8.1
CNc1cc(-c2ccc3cc(C#N)cnn23)ncc1-c1nnc(C23CCC(NC(=O)CCOCCOCCOCCNc4cccc5c4C(=O)N(C4CCC(=O)NC4=O)C5=O)(CC2)CC3)s1 (centres unmarked) [Example 110, N-(4-(5-(6-(3-cyanopyrrolo[1,2-b]pyridazin-7-yl)-4-(methylamino)pyridin-3-yl)-1,3,4-thiadiazol-2-yl)bicyclo[2.2.2]octan-1-yl)-3-(2-(2-(2-((2-(2,6-dioxopiperidin-3-yl)-1,3-dioxoisoindolin-4-yl)amino)ethoxy)ethoxy)ethoxy)propanamide]	0.7	93	34.2			
CN[C@@H](C)C(=O)N[C@H](C(=O)N1CCC[C@H]1c1nc(C(=O)c2cccc(OCCOCCC(=O)N3CCN(c4nnc(-c5cnc(-c6ccc7cc(C#N)cnn67)cc5NC(C)C)s4)CC3)c2)cs1)C1CCCCC1 [Example 50, (S)—N—((S)-2-((S)-2-(4-(3-(2-(3-(4-(5-(6-(3-cyanopyrrolo[1,2-b]pyridazin-7-yl)-4-(isopropylamino)pyridin-3-yl)-1,3,4-thiadiazol-2-yl)piperazin-1-yl)-3-oxopropoxy)ethoxy)benzoyl)thiazol-2-yl)pyrrolidin-1-yl)-1-cyclohexyl-2-oxoethyl)-2-(methylamino)propanamide]	3.2	67	197	3.1	67	197
CC(C)Nc1cc(-c2ccc3cc(C#N)cnn23)ncc1-c1nnc(N2CCC(NC(=O)C3CCN(Cc4ccc5c(c4)C(=O)N(C4CCC(=O)NC4=O)C5=O)CC3)CC2)s1 (centres unmarked) [Example 30, N-(1-(5-(6-(3-cyanopyrrolo[1,2-b]pyridazin-7-yl)-4-(isopropylamino)pyridin-3-yl)-1,3,4-thiadiazol-2-yl)piperidin-4-yl)-1-((2-(2,6-dioxopiperidin-3-yl)-1,3-dioxoisoindolin-5-yl)methyl)piperidine-4-carboxamide]	1.1	95	73.5	0.9	95	73.4
CC(C)Nc1cc(-c2ccc3cc(C#N)cnn23)ncc1-c1nnc(N2CCN(C[C@H]3CCN(c4ccc5c(c4)C(=O)N(C4CCC(=O)NC4=O)C5=O)C3)CC2)s1 (stereo partly drawn) [Example 19, 77-(5-(5-(4-(((3R)-1-(2-(2,6-dioxopiperidin-3-yl)-1,3-dioxoisoindolin-5-yl)pyrrolidin-3-yl)methyl)piperazin-1-yl)-1,3,4-thiadiazol-2-yl)-4-(isopropylamino)pyridin-2-yl)pyrrolo[1,2-b]pyridazine-3-carbonitrile]	2.2	67	90.6	2.2	79	90.1

Other lines, results leading:

IC50 (IRAK4 [1]; Table 5, multiple runs) [nM]	Dmax (IRAK4 [2]; [3]) [%]	DC50 (IRAK4 [2]; Table 5, multiple runs) [nM]	IC50 (IRAK4 [1]; Table 4) [nM]	Dmax (IRAK4 [2]; [4]) [%]	DC50 (IRAK4 [2]; Table 4) [nM]	Structure (SMILES)
2.3	111	222				CNc1cc(-c2ccc3cc(C#N)cnn23)ncc1-c1nnc([C@H]2C[C@H](NC(=O)C[C@H](NC(=O)[C@@H]3C[C@@H](O)CN3C(=O)[C@@H](NC(=O)C3(F)CC3)C(C)(C)C)c3ccc(-c4scnc4C)cc3)C2)s1 [Example 183, (2S,4R)—N—((S)-3-(((1r,3S)-3-(5-(6-(3-cyanopyrrolo[1,2-b]pyridazin-7-yl)-4-(methylamino)pyridin-3-yl)-1,3,4-thiadiazol-2-yl)cyclobutyl)amino)-1-(4-(4-methylthiazol-5-yl)phenyl)-3-oxopropyl)-1-((S)-2-(1-fluorocyclopropane-1-carboxamido)-3,3-dimethylbutanoyl)-4-hydroxypyrrolidine-2-carboxamide]
1.5	110	48.2				CNc1cc(-c2ccc3cc(C#N)cnn23)ncc1-c1nnc([C@H]2CC[C@H](N(C)C(=O)C[C@H](NC(=O)[C@@H]3C[C@@H](O)CN3C(=O)C(c3cc(C)no3)C(C)C)c3ccc(-c4scnc4C)cc3)CC2)s1 (stereo partly drawn) [Example 191, (2S,4R)—N—((S)-3-(((1r,4S)-4-(5-(6-(3-cyanopyrrolo[1,2-b]pyridazin-7-yl)-4-(methylamino)pyridin-3-yl)-1,3,4-thiadiazol-2-yl)cyclohexyl)(methyl)amino)-1-(4-(4-methylthiazol-5-yl)phenyl)-3-oxopropyl)-4-hydroxy-1-(3-methyl-2-(3-methylisoxazol-5-yl)butanoyl)pyrrolidine-2-carboxamide]
2.4	90	519				CNc1cc(-c2ccc3cc(C#N)cnn23)ncc1-c1nnc(C23CCC(NC(=O)CC(C)(C)C(=O)N[C@H](C(=O)N4C[C@H](O)C[C@H]4C(=O)N[C@@H](C)c4ccc(-c5scnc5C)cc4)C(C)(C)C)(CC2)CC3)s1 [Example 155, N4-(4-(5-(6-(3-cyanopyrrolo[1,2-b]pyridazin-7-yl)-4-(methylamino)pyridin-3-yl)-1,3,4-thiadiazol-2-yl)bicyclo[2.2.2]octan-1-yl)-N1—((S)-1-((2S,4R)-4-hydroxy-2-(((S)-1-(4-(4-methylthiazol-5-yl)phenyl)ethyl)carbamoyl)pyrrolidin-1-yl)-3,3-dimethyl-1-oxobutan-2-yl)-2,2-dimethylsuccinamide]
0.6		> 9980				CNc1cc(-c2ccc3cc(C#N)cnn23)ncc1-c1nnc(N2CCN(C3CCN(C(=O)c4ccc(C(=O)NC5CCC(=O)NC5=O)cc4)CC3)CC2)s1 (centres unmarked) [Example 132, 4-(4-(4-(5-(6-(3-cyanopyrrolo[1,2-b]pyridazin-7-yl)-4-(methylamino)pyridin-3-yl)-1,3,4-thiadiazol-2-yl)piperazin-1-yl)piperidine-1-carbonyl)-N-(2,6-dioxopiperidin-3-yl)benzamide]
1	104	17.6				CNc1cc(-c2ccc3cc(C#N)cnn23)ncc1-c1nnc(N2CCC(C(=O)N3CCN(Cc4ccc5c(c4)C(=O)N(C4CCC(=O)NC4=O)C5=O)CC3)CC2)s1 (centres unmarked) [Example 157, 7-(5-(5-(4-(4-((2-(2,6-dioxopiperidin-3-yl)-1,3-dioxoisoindolin-5-yl)methyl)piperazine-1-carbonyl)piperidin-1-yl)-1,3,4-thiadiazol-2-yl)-4-(methylamino)pyridin-2-yl)pyrrolo[1,2-b]pyridazine-3-carbonitrile]
0.6	20	2.63				CNc1cc(-c2ccc3cc(C#N)cnn23)ncc1-c1nnc([C@H]2CC[C@H](N(C)C(=O)Cc3ccc4c(c3)CN(C3CCC(=O)NC3=O)C4=O)CC2)s1 (some centres unmarked) [Example 168, N-((1r,4r)-4-(5-(6-(3-cyanopyrrolo[1,2-b]pyridazin-7-yl)-4-(methylamino)pyridin-3-yl)-1,3,4-thiadiazol-2-yl)cyclohexyl)-2-(2-(2,6-dioxopiperidin-3-yl)-1-oxoisoindolin-5-yl)-N-methylacetamide]
0.9	111	63.1				CNc1cc(-c2ccc3cc(C#N)cnn23)ncc1-c1nnc([C@H]2CC[C@@H](NC(=O)CN3CCN(c4ccc5c(c4)C(=O)N(C4CCC(=O)NC4=O)C5=O)CC3)CC2)s1 (some centres unmarked) [Example 126, N-((1s,4s)-4-(5-(6-(3-cyanopyrrolo[1,2-b]pyridazin-7-yl)-4-(methylamino)pyridin-3-yl)-1,3,4-thiadiazol-2-yl)cyclohexyl)-2-(4-(2-(2,6-dioxopiperidin-3-yl)-1,3-dioxoisoindolin-5-yl)piperazin-1-yl)acetamide]
2.2	78	44.7				CNc1cc(-c2ccc3cc(C#N)cnn23)ncc1-c1nnc([C@H]2CC[C@@H](NC(=O)CCOCCNc3ccc4c(c3)C(=O)N(C3CCC(=O)NC3=O)C4=O)CC2)s1 (some centres unmarked) [Example 115, N-((1s,4s)-4-(5-(6-(3-cyanopyrrolo[1,2-b]pyridazin-7-yl)-4-(methylamino)pyridin-3-yl)-1,3,4-thiadiazol-2-yl)cyclohexyl)-3-(2-((2-(2,6-dioxopiperidin-3-yl)-1,3-dioxoisoindolin-5-yl)amino)ethoxy)propanamide]
0.8	104	32				CNc1cc(-c2ccc3cc(C#N)cnn23)ncc1-c1nnc([C@H]2CC[C@H](N(C)C(=O)C3CCN(c4ccc5c(c4)C(=O)N(C4CCC(=O)NC4=O)C5=O)CC3)CC2)s1 (some centres unmarked) [Example 169, N-((1r,4r)-4-(5-(6-(3-cyanopyrrolo[1,2-b]pyridazin-7-yl)-4-(methylamino)pyridin-3-yl)-1,3,4-thiadiazol-2-yl)cyclohexyl)-1-(2-(2,6-dioxopiperidin-3-yl)-1,3-dioxoisoindolin-5-yl)-N-methylpiperidine-4-carboxamide]
